Source: PubChem BioAssay AID248 (DTP/NCI, 2004)
“And” between values parts separate entries of the source, which are not always exact repeats. Equal values may be shown once. Inconclusive results and toxic doses are left out. No stated cut-off is given here; in the data, active means T/C of 150% or more; inactive means T/C below 125%. Square brackets hold non-standard residues; d marks the D form. Peptide text beside a SMILES is read from it. * marks the point of attachment. ξ: configuration not given here. Boc = CC(C)(C)OC(=O)*; ξP = O=C(O)C1CCCN1

Test system: L1210 leukemia ip in BDF1 mice, survival T/C
Test: NCI In Vivo Anticancer Drug Screen. Data for tumor model L1210 Leukemia (intraperitoneal) in B6D2F1 (BDF1) mice
Conditions: endpoint: mean survival time, higher = longer survival
Outline: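 Transplantable tumor model; survival measured in treated vs vehicle control mice. Value = treated/control.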

[1] = dose: 100.0 mg/kg/injection, schedule: Q04DX002 (ip), vehicle: Klucel (hydroxypropylcellulose) (HPC)
[2] = dose: 200.0 mg/kg/injection, schedule: Q04DX002 (ip), vehicle: Klucel (hydroxypropylcellulose) (HPC)
[3] = dose: 400.0 mg/kg/injection, schedule: Q04DX002 (ip), vehicle: Klucel (hydroxypropylcellulose) (HPC)
[4] = dose: 100.0 mg/kg/injection, schedule: Q04DX003 (ip), vehicle: saline with Tween-80
[5] = dose: 200.0 mg/kg/injection, schedule: Q04DX003 (ip), vehicle: saline with Tween-80
[6] = dose: 400.0 mg/kg/injection, schedule: Q04DX003 (ip), vehicle: saline with Tween-80
[7] = dose: 100.0 mg/kg/injection, schedule: Q04DX002 (ip), vehicle: saline
[8] = dose: 200.0 mg/kg/injection, schedule: Q04DX002 (ip), vehicle: saline
[9] = dose: 100.0 mg/kg/injection, schedule: Q01DX001 (ip), vehicle: saline
[10] = dose: 200.0 mg/kg/injection, schedule: Q01DX001 (ip), vehicle: saline
[11] = dose: 400.0 mg/kg/injection, schedule: Q01DX001 (ip), vehicle: saline
[12] = dose: 100.0 mg/kg/injection, schedule: Q01DX009 (ip), vehicle: saline
[13] = dose: 200.0 mg/kg/injection, schedule: Q01DX009 (ip), vehicle: saline
[14] = dose: 400.0 mg/kg/injection, schedule: Q01DX009 (ip), vehicle: saline
[15] = dose: 100.0 mg/kg/injection, schedule: Q01DX009 (ip), vehicle: saline with Tween-80
[16] = dose: 400.0 mg/kg/injection, schedule: Q01DX009 (ip), vehicle: saline with Tween-80
[17] = dose: 200.0 mg/kg/injection, schedule: Q01DX009 (ip), vehicle: saline with Tween-80

Measured: T/C

Cc1c(Cl)cccc1NC(=O)C1CC(Br)C(Br)CC1C(=O)O (stereo not drawn)
inactive: [1] 95 % of control | [2] 103 % of control | [3] 95 % of control

CC1SCC(=O)CS1
inactive: dose: 100.0 mg/kg/injection, schedule: Q01DX001 (ip), vehicle: Klucel (hydroxypropylcellulose) (HPC) 93 % of control | dose: 100.0 mg/kg/injection, schedule: Q04DX003 (ip), vehicle: Klucel (hydroxypropylcellulose) (HPC) 91 % of control | dose: 200.0 mg/kg/injection, schedule: Q01DX001 (ip), vehicle: Klucel (hydroxypropylcellulose) (HPC) 96 % of control | dose: 200.0 mg/kg/injection, schedule: Q04DX003 (ip), vehicle: Klucel (hydroxypropylcellulose) (HPC) 94 % of control | dose: 400.0 mg/kg/injection, schedule: Q01DX001 (ip), vehicle: Klucel (hydroxypropylcellulose) (HPC) 96 % of control | dose: 400.0 mg/kg/injection, schedule: Q04DX003 (ip), vehicle: Klucel (hydroxypropylcellulose) (HPC) 97 % of control

CCCCCCCCCCN=C(N)N/C(N)=N/S(=O)(=O)c1ccc(OCCCC)cc1
inactive: [1] 103 % of control | [2] 95 % of control | [3] 103 % of control

O=S(=O)(F)c1ccccc1C[P+](c1ccccc1)(c1ccccc1)c1ccccc1
inactive: dose: 1.56 mg/kg/injection, schedule: Q01DX009 (ip), vehicle: Klucel (hydroxypropylcellulose) (HPC) 110 % of control | dose: 3.12 mg/kg/injection, schedule: Q01DX009 (ip), vehicle: Klucel (hydroxypropylcellulose) (HPC) 118 % of control | dose: 6.25 mg/kg/injection, schedule: Q01DX009 (ip), vehicle: Klucel (hydroxypropylcellulose) (HPC) 117 % of control

O=C1CCCc2ccc(Br)cc21
inactive: [4] 99 % of control | [5] 96 % of control | [6] 99 % of control

Cc1cccc(C)c1NC(=O)C[N+](C)(C)N
inactive: [7] 94 % of control | [8] 94 % of control

COC1OC(CCl)C(OS(C)(=O)=O)C(OC(=O)c2ccccc2)C1OC(=O)c1ccccc1 (stereo not drawn)
inactive: dose: 25.0 mg/kg/injection, schedule: Q04DX002 (ip), vehicle: Klucel (hydroxypropylcellulose) (HPC) 102 % of control | dose: 50.0 mg/kg/injection, schedule: Q04DX002 (ip), vehicle: Klucel (hydroxypropylcellulose) (HPC) 97 % of control | [1] 102 % of control

COC(=O)C1CCCN1C(=O)CNC(=O)OC(C)(C)C (stereo not drawn) (Boc-Gly-[ξP]-OMe)
inactive: [9] 103 % of control | [10] 97 % of control | [11] 94 % of control

O=[N+]([O-])c1ccc(N/N=C\c2ccc3ccccc3n2)cc1
inactive: [12] 97 % of control | [13] 104 % of control | [14] 91 % of control

O=S(=O)(c1ccccc1)N1CCOC1=S
inactive: dose: 100.0 mg/kg/injection, schedule: Q04DX003 (ip), vehicle: acetone 93 % of control | dose: 200.0 mg/kg/injection, schedule: Q04DX003 (ip), vehicle: acetone 101 % of control | dose: 400.0 mg/kg/injection, schedule: Q04DX003 (ip), vehicle: acetone 93 % of control

COC(c1ccccc1)[CH]([Hg][Br])C(=O)OC1CC2CCC1(C)C2(C)C (stereo not drawn)
inactive: dose: 50.0 mg/kg/injection, schedule: Q01DX001 (ip), vehicle: carboxymethylcellulose (CMC) 93 % of control

CC1(C)SC(C(NC(=O)Cc2ccccc2)C(=O)O)NC1C(=O)O (stereo not drawn)
inactive: [15] 92 % of control | [16] 97 % of control

Cc1c2ccccc2c(C)c2c1cc(O)c1ccccc12
inactive: dose: 50.0 mg/kg/injection, schedule: Q01DX009 (ip), vehicle: Klucel (hydroxypropylcellulose) (HPC) 113 % of control | dose: 100.0 mg/kg/injection, schedule: Q01DX009 (ip), vehicle: Klucel (hydroxypropylcellulose) (HPC) 121 % of control

NC(=O)C1=C(N)CCC1
inactive: [4] 100 % of control | [5] 95 % of control | [6] 97 % of control

ClC1(Cl)Cc2ccccc21
inactive: [15] 97 % of control | dose: 177.0 mg/kg/injection, schedule: Q04DX003 (ip), vehicle: saline with Tween-80 98 % of control | [17] 96 % of control | [5] 101 % of control | dose: 266.0 mg/kg/injection, schedule: Q04DX003 (ip), vehicle: saline with Tween-80 98 % of control | [16] 96 % of control | [6] 98 % of control | dose: 600.0 mg/kg/injection, schedule: Q04DX003 (ip), vehicle: saline with Tween-80 110 % of control

Cc1cc(Cl)ccc1NC(C)(C)C
inactive: dose: 75.0 mg/kg/injection, schedule: Q04DX002 (ip), vehicle: Klucel (hydroxypropylcellulose) (HPC) 104 % of control | dose: 150.0 mg/kg/injection, schedule: Q04DX002 (ip), vehicle: Klucel (hydroxypropylcellulose) (HPC) 108 % of control | dose: 300.0 mg/kg/injection, schedule: Q04DX002 (ip), vehicle: Klucel (hydroxypropylcellulose) (HPC) 104 % of control

CN(N)C(=O)Nc1ccc(Br)cc1
inactive: dose: 75.0 mg/kg/injection, schedule: Q01DX001 (ip), vehicle: carboxymethylcellulose (CMC) 104 % of control | dose: 150.0 mg/kg/injection, schedule: Q01DX001 (ip), vehicle: carboxymethylcellulose (CMC) 100 % of control | dose: 300.0 mg/kg/injection, schedule: Q01DX001 (ip), vehicle: carboxymethylcellulose (CMC) 98 % of control

N#CCCN/N=C\c1ccc2c(c1)OCO2
inactive: dose: 50.0 mg/kg/injection, schedule: Q01DX001 (ip), vehicle: saline 95 % of control | [9] 97 % of control | [10] 95 % of control | [11] 95 % of control

NNc1cc(S(=O)(=O)O)cc(C(=O)O)c1O
inactive: [9] 107 % of control | [12] 100 % of control and 103 % of control | [7] 97 % of control and 90 % of control | [10] 102 % of control | [13] 110 % of control and 89 % of control | [8] 100 % of control and 90 % of control | [11] 102 % of control | [14] 87 % of control | dose: 400.0 mg/kg/injection, schedule: Q04DX002 (ip), vehicle: saline 108 % of control and 90 % of control

CCN(CC)CC(=O)NCC(CCCN(C)C)(CCCN(C)C)c1cccc2ccccc12
inactive: dose: 12.5 mg/kg/injection, schedule: Q01DX009 (ip), vehicle: saline 96 % of control | dose: 25.0 mg/kg/injection, schedule: Q01DX009 (ip), vehicle: saline 91 % of control | dose: 25.0 mg/kg/injection, schedule: Q04DX002 (ip), vehicle: saline 93 % of control | dose: 50.0 mg/kg/injection, schedule: Q01DX009 (ip), vehicle: saline 86 % of control | dose: 50.0 mg/kg/injection, schedule: Q04DX002 (ip), vehicle: saline 100 % of control

CC(=O)Nc1ccc(N=CN(C)C)cc1
inactive: [15] 94 % of control | [17] 101 % of control

CC(=O)OCC1OC2OC(c3ccccc3)=NC2C(OC(C)=O)C1OC(C)=O (stereo not drawn)
inactive: dose: 22.5 mg/kg/injection, schedule: Q01DX001 (ip), vehicle: carboxymethylcellulose (CMC) 97 % of control | dose: 45.0 mg/kg/injection, schedule: Q01DX001 (ip), vehicle: carboxymethylcellulose (CMC) 103 % of control | dose: 90.0 mg/kg/injection, schedule: Q01DX001 (ip), vehicle: carboxymethylcellulose (CMC) 105 % of control | dose: 180.0 mg/kg/injection, schedule: Q01DX001 (ip), vehicle: carboxymethylcellulose (CMC) 97 % of control
